Experimental data taken from patent US12012411B2, “Viral replication inhibitors” (Katholieke Universiteit Leuven, priority 2011, dated 2024).
Where two headings read alike, the source gives them in different places.

Experiments:
[1] = test system: DENV-3 strain H87 prototype; assay: Antiviral activity against DENV-3 in Vero-B cells (viral RNA load by RT-qPCR); assay type: cell-based, Dengue virus
in vitro = details: African green monkey; for CC50 at 4 days: uninfected quiescent Vero-B cells
[2] = test system: DENV-4 strain Dak HD 34 460; assay: Antiviral activity against DENV-4 in Vero-B cells (viral RNA load by RT-qPCR); assay type: cell-based, Dengue virus; details: Dengue virus, DENV4, Vero B
[3] = test system: DENV-1 Djibouti strain D1/H/IMTSSA/98/606; assay: Antiviral activity against DENV-1 in Vero-B cells (viral RNA load by RT-qPCR); assay type: cell-based, Dengue virus
DENV-2 NGC = assay: Antiviral activity against DENV-2 NGC in Vero-B cells (viral RNA load by RT-qPCR); assay type: cell-based, Dengue virus; details: DENV-2 in Vero-B cells, inhibition of viral RNA replication by 50% (Table 3)

Row | SMILES | EC50 ([1]; Dengue virus, DENV3, Vero B) [nM] | CC50 at 4 days (in vitro) [nM] | EC50 [2] [nM] | EC50 ([3]; Dengue virus, DENV1, Vero B) [nM] | EC50 (DENV-2 NGC; Dengue virus, DENV2, Vero B) [nM] | EC50 [1] [nM] | EC50 [3] [nM] | EC50 (DENV-2 NGC) [nM] | CC50 (in vitro) [nM]
1 | COc1cccc(NC(C(=O)c2c[nH]c3ccccc23)c2cn3ccccc3n2)c1 (stereo not drawn) [CPD-030] | 6240 | > 126000 | 13200 | 4800 | 90 | – | – | – | –
2 | COc1cncc(NC(C(=O)c2c[nH]c3ccc(F)cc23)c2ccc(OC)nc2)c1 (single isomer, unassigned) [CPD-322] | – | 51000 | 3000 | – | – | 320 | 300 | 20 | –
3 | COc1cncc(NC(C(=O)c2c[nH]c3ccccc23)c2ccc(C#N)cc2)c1 (stereo not drawn) [CPD-159] | 3160 | 67000 | 6860 | 1480 | 110 | – | – | – | –
4 | COc1cc(NC(C(=O)c2c[nH]c3ccccc23)c2ccc(OC)nc2)cc(OC)c1 (stereo not drawn) [CPD-335] | 420 | 18000 | 2380 | 320 | 20 | – | – | – | –
5 | COc1cccc(NC(C(=O)c2c[nH]c3ccccc23)c2ccc(OC)nc2)c1 (stereo not drawn) [CPD-055] | 3380 | 50000 | 4440 | 1860 | 70 | – | – | – | –
6 | COc1cccc(NC(C(=O)c2nn(C)c3ccccc23)c2ccc(C#N)cc2)c1 (stereo not drawn) [CPD-260] | 22600 | > 126000 | 5440 | 6630 | 80 | – | – | – | –
7 | COc1cccc(NC(C(=O)c2nn(C)c3ccccc23)c2cc3ccccn3n2)c1 (stereo not drawn) [CPD-273] | 7660 | > 122000 | 8410 | 580 | 320 | – | – | – | –
8 | COc1cc(CO)cc(NC(C(=O)c2c[nH]c3cc(F)ccc23)c2ccccc2)c1 (stereo not drawn) [CPD-285] | 2200 | 50000 | 2310 | 840 | 40 | – | – | – | –
9 | COc1cncc(NC(C(=O)c2c[nH]c3ccccc23)c2ccccc2)c1 (single isomer, unassigned) [CPD-299] | – | 62000 | 3650 | – | – | 780 | 500 | 20 | –
10 | COc1cccc(NC(C(=O)c2c[nH]c3cc(F)ccc23)c2cccnc2)c1 (stereo not drawn) [CPD-152] | 990 | 75000 | 5620 | 2050 | 90 | – | – | – | –
11 | COc1cc(NC(C(=O)c2c[nH]c3ccccc23)c2ccccc2)cc(OC)n1 (stereo not drawn) [CPD-319] | 1700 | 20000 | 2270 | 2840 | 120 | – | – | – | –
12 | COc1cccc(NC(C(=O)c2nn(C)c3cc(F)ccc23)c2ccccc2)c1 (stereo not drawn) [CPD-281] | 5570 | > 128000 | 1120 | 850 | 210 | – | – | – | –
13 | COc1cc(NC(C(=O)c2cn(C)c3ccccc23)c2ccccc2)cc(OCCO)c1 (stereo not drawn) [CPD-305] | 1020 | > 116000 | 2560 | 440 | 90 | – | – | – | –
14 | COc1cccc(NC(C(=O)c2c[nH]c3c(Cl)cccc23)c2ccccc2)c1 (stereo not drawn) [CPD-084] | 2380 | > 127000 | 3090 | < 500 | 30 | – | – | – | –
15 | COc1cccc(NC(C(=O)c2nn(C)c3ccccc23)c2ccccc2)c1 (stereo not drawn) [CPD-203] | 5060 | > 134000 | 5320 | 5090 | 730 | – | – | – | –
16 | COc1cccc(NC(C(=O)c2c[nH]c3c(C)cccc23)c2cc3ccccn3n2)c1 (stereo not drawn) [CPD-329] | 320 | 41000 | 2920 | 270 | 10 | – | – | – | –
17 | COc1cc(CO)cc(NC(C(=O)c2c[nH]c3c(C)cccc23)c2ccccc2)c1 (stereo not drawn) [CPD-318] | 2320 | 54000 | 10800 | 220 | 60 | – | – | – | –

Row | SMILES | EC50 ([1]; Dengue virus, DENV3, Vero B) [nM] | CC50 at 4 days (in vitro) [nM] | EC50 [2] [nM] | EC50 ([3]; Dengue virus, DENV1, Vero B) [nM] | EC50 (DENV-2 NGC; Dengue virus, DENV2, Vero B) [nM] | EC50 [1] [nM] | EC50 [3] [nM] | EC50 (DENV-2 NGC) [nM] | CC50 (in vitro) [nM]
18 | COc1cncc(NC(C(=O)c2c[nH]c3ccc(F)cc23)c2ccc(OC)nc2)c1 (stereo not drawn) [CPD-241] | 620 | 58000 | 5690 | 620 | 40 | – | – | – | –
19 | COc1cccc(NC(C(=O)c2c[nH]c3ccc(C)cc23)c2ccccc2)c1 (stereo not drawn) [CPD-130] | 1700 | 15000 | 7420 | 350 | 30 | – | – | – | –
20 | COc1cccc(NC(C(=O)N2CCc3ccccc32)c2ccccc2)c1 (stereo not drawn) [CPD-056] | 69200 | > 139000 | 5920 | 10600 | 450 | – | – | – | –
21 | COc1cc(CO)cc(NC(C(=O)c2c[nH]c3ccccc23)c2ccc(F)cc2)c1 (stereo not drawn) [CPD-313] | 1110 | 58000 | 5840 | 720 | 40 | – | – | – | –
22 | COc1cc(CO)cc(NC(C(=O)c2c[nH]c3ccccc23)c2cc3ccccn3n2)c1 (stereo not drawn) [CPD-289] | 910 | 68000 | 10200 | 800 | 60 | – | – | – | –
23 | COc1cc(NC(C(=O)c2c[nH]c3ccccc23)c2ccc(C#N)cc2)cc(OC)c1 (stereo not drawn) [CPD-233] | 1290 | 11000 | 3090 | 220 | 10 | – | – | – | –
24 | COc1cccc(NC(C(=O)c2cn(C)c3ccc(F)cc23)c2ccccc2)c1 (stereo not drawn) [CPD-137] | 3810 | > 128000 | 2780 | 670 | 50 | – | – | – | –
25 | COc1cncc(NC(C(=O)c2c[nH]c3ccccc23)c2ccc(OC)nc2)c1 (stereo not drawn) [CPD-158] | 2190 | 63000 | 7200 | 2500 | 90 | – | – | – | –
26 | COc1cccc(NC(C(=O)c2c[nH]c3ccccc23)c2cncc(C)c2)c1 (stereo not drawn) [CPD-309] | 700 | 74000 | 2800 | 620 | 540 | – | – | – | –
27 | COc1cccc(NC(C(=O)c2c[nH]c3ccccc23)c2cn3ncccc3n2)c1 (stereo not drawn) [CPD-238] | 1650 | > 125000 | 10200 | 540 | 40 | – | – | – | –
28 | COc1cc(NC(C(=O)c2c[nH]c3ccccc23)c2ccccc2)cnc1OC (stereo not drawn) [CPD-256] | 4490 | 83000 | 19900 | 6760 | 190 | – | – | – | –
29 | COc1cccc(NC(C(=O)c2cn(CCO)c3cc(F)ccc23)c2ccccc2)c1 (stereo not drawn) [CPD-245] | 2380 | – | 3010 | 700 | 80 | – | – | – | 16000
30 | COc1cc(NC(C(=O)c2nn(C)c3ccccc23)c2cccnc2)cc(OC)c1 (stereo not drawn) [CPD-279] | 890 | > 124000 | 8660 | 620 | 180 | – | – | – | –
31 | COc1cccc(NC(C(=O)c2c[nH]c3ccccc23)c2cccnn2)c1 (stereo not drawn) [CPD-317] | 12800 | 88000 | 10600 | 4130 | 580 | – | – | – | –
32 | COc1cccc(NC(C(=O)c2c[nH]c3ccccc23)c2cncc(F)c2)c1 (stereo not drawn) [CPD-321] | 320 | 33000 | 2740 | 400 | 110 | – | – | – | –
33 | COc1cc(CO)cc(NC(C(=O)c2c[nH]c3ccc(F)cc23)c2ccccc2)c1 (stereo not drawn) [CPD-296] | 1830 | 31000 | 3310 | 990 | 50 | – | – | – | –
